Measured values taken from patent US12681015B2, “Methods for predicting patient response to DMARDs” (Queen Mary University of London, priority 2019, dated 2026).

Test system: plasma SPM concentrations in mice
Test: MTX given intravenously to mice, plasma SPM by LC-MS/MS lipid mediator profiling
Assay type: in vivo
Conditions: blood after 1 hour; for plasma 4S,14S-diHDHA concentration in mice, Mean ± SEM / plasma 5S,15S-diHETE concentration in mice, Mean ± SEM / plasma 7S,14S-diHDHA concentration in mice, Mean ± SEM / plasma 7S,14S-diHDPA concentration in mice, Mean ± SEM / plasma 10S,17S-diHDPA concentration in mice, Mean ± SEM / plasma 13,14-dehydro-15-oxo-LXA4 concentration in mice, Mean ± SEM / plasma 14-oxo-MaR1 concentration in mice, Mean ± SEM / plasma 15-oxo-LXA4 concentration in mice, Mean ± SEM / plasma 15R-LXA4 concentration in mice, Mean ± SEM / plasma 15R-LXB4 concentration in mice, Mean ± SEM / plasma 17R-PD1 concentration in mice, Mean ± SEM / plasma 17R-RvD1 concentration in mice, Mean ± SEM / plasma 17R-RvD3 concentration in mice, Mean ± SEM / plasma 22-OH-MaR1 concentration in mice, Mean ± SEM / plasma 22-OH-PD1 concentration in mice, Mean ± SEM / plasma LXA4 concentration in mice, Mean ± SEM / plasma LXB4 concentration in mice, Mean ± SEM / plasma MaR1 concentration in mice, Mean ± SEM / plasma MaR1n-3 DPA concentration in mice, Mean ± SEM / plasma MaR2 concentration in mice, Mean ± SEM / plasma PD1 concentration in mice, Mean ± SEM / plasma PD1n-3 DPA concentration in mice, Mean ± SEM / plasma PDx concentration in mice, Mean ± SEM / plasma RvD1 concentration in mice, Mean ± SEM / plasma RvD1n-3 DPA concentration in mice, Mean ± SEM / plasma RvD2 concentration in mice, Mean ± SEM / plasma RvD2n-3 DPA concentration in mice, Mean ± SEM / plasma RvD3 concentration in mice, Mean ± SEM / plasma RvD4 concentration in mice, Mean ± SEM / plasma RvD5 concentration in mice, Mean ± SEM / plasma RvD5n-3 DPA concentration in mice, Mean ± SEM / plasma RvD6 concentration in mice, Mean ± SEM / plasma RvE1 concentration in mice, Mean ± SEM / plasma RvE2 concentration in mice, Mean ± SEM / plasma RvE3 concentration in mice, Mean ± SEM / plasma RvT1 concentration in mice, Mean ± SEM / plasma RvT2 concentration in mice, Mean ± SEM / plasma RvT3 concentration in mice, Mean ± SEM / plasma RvT4 concentration in mice, Mean ± SEM: intravenous injection
Procedure: Plasma was obtained by centrifugation and peripheral blood SPM concentrations were determined using LC-MS/MS based lipid mediator profiling. (A) OPLS-DA analysis of plasma SPM concentrations. Colored spherical areas display 95% confidence region of respective incubations. […] Results for A, B are representative of n=6 donors from three distinct experiments. […] Blood was then collected after 1 hour and SPM concentrations were determined using LC-MS/MS based lipid mediator profiling (D) oPLS-DA analysis of plasma SPM concentrations. Colored areas display 95% confidence region of respective incubations. […] Results are representative of n=4 mice per group and experiments were conducted on two distinct occasions.
Plasma was obtained from peripheral blood of healthy volunteers, patients and mouse following centrifugation at 1500×g for 10 min at room temperature. Paws were collected and immediately transferred to liquid nitrogen prior to homogenization in 1 ml ice cold MeOH and homogenized using a glass dounce. All samples for LC-MS/MS-based profiling were extracted using solid-phase extraction columns as in Walker, M. E., Souza, P. R., Colas, R. A. & Dalli, J. “13-Series resolvins mediate the leukocyte-platelet actions of atorvastatin and pravastatin in inflammatory arthritis.” FASEB J 31, 3636-3648 (2017), the contents of which are incorporated herein by reference. Prior to sample extraction, deuterated internal standards, representing each region in the chromatographic analysis (500 pg each) were added to facilitate quantification. Samples were kept at −20° C. for a minimum of 45 min to allow protein precipitation. Supernatants were subjected to solid phase extraction, methyl formate fraction collected, brought to dryness and suspended in phase (methanol/water, 1:1, vol/vol) for injection on a Shimadzu LC-20AD HPLC and a Shimadzu SIL-20AC autoinjector, paired with a QTrap 5500 or QTrap 6500 plus (Sciex). An Agilent Poroshell 120 EC-C18 column (100 mm×4.6 mm×2.7 μm) was kept at 50° C. and mediators eluted using a mobile phase consisting of methanol/water/acetic acid of 20:80:0.01 (vol/vol/vol) that was ramped to 50:50:0.01 (vol/vol/vol) over 0.5 min and then to 80:20:0.01 (vol/vol/vol) from 2 min to 11 min, maintained till 14.5 min and then rapidly ramped to 98:2:0.01 (vol/vol/vol) for the next 0.1 min. This was subsequently maintained at 98:2:0.01 (vol/vol/vol) for 5.4 min, and the flow rate was maintained at 0.5 ml/min. QTrap 5500 or QTrap 6500 plus were operated using a multiple reaction monitoring method as in Walker, M. E., Souza, P. R., Colas, R. A. & Dalli, J. “13-Series resolvins mediate the leukocyte-platelet actions of atorvastatin and pravastatin in inflammatory arthritis.” FASEB J 31, 3636-3648 (2017), the contents of which are incorporated herein by reference. Each lipid mediator was identified using established criteria including matching retention time to synthetic or authentic standards and at least 6 diagnostic ions (Walker, M. E., Souza, P. R., Colas, R. A. & Dalli, J. “13-Series resolvins mediate the leukocyte-platelet actions of atorvastatin and pravastatin in inflammatory arthritis.” FASEB J 31, 3636-3648 (2017), the contents of which are incorporated herein by reference).

[1] = mice, MTX 1 μg/mouse or 22 μg/mouse intravenous

CN(Cc1cnc2nc(N)nc(N)c2n1)c1ccc(C(=O)N[C@@H](CCC(=O)O)C(=O)O)cc1 [MTX, Methotrexate]
plasma 4S,14S-diHDHA concentration in mice, Mean ± SEM (1 μg/mouse): 18.38 ± 6.59
plasma 5S,15S-diHETE concentration in mice, Mean ± SEM (1 μg/mouse): 14.61 ± 6.53
plasma 7S,14S-diHDHA concentration in mice, Mean ± SEM (1 μg/mouse): 0.00 ± 0.00
plasma 7S,14S-diHDPA concentration in mice, Mean ± SEM (1 μg/mouse): 0.00 ± 0.00
plasma 10S,17S-diHDPA concentration in mice, Mean ± SEM (1 μg/mouse): 2.41 ± 0.97
plasma 13,14-dehydro-15-oxo-LXA4 concentration in mice, Mean ± SEM (1 μg/mouse): 0.65 ± 0.21
plasma 14-oxo-MaR1 concentration in mice, Mean ± SEM (1 μg/mouse): 3.44 ± 0.37
plasma 15-oxo-LXA4 concentration in mice, Mean ± SEM (1 μg/mouse): 3.53 ± 1.62
plasma 15R-LXA4 concentration in mice, Mean ± SEM (1 μg/mouse): 6.41 ± 0.78
plasma 15R-LXB4 concentration in mice, Mean ± SEM (1 μg/mouse): 3.90 ± 1.80
plasma 17R-PD1 concentration in mice, Mean ± SEM (1 μg/mouse): 10.50 ± 4.91
plasma 17R-RvD1 concentration in mice, Mean ± SEM (1 μg/mouse): 0.00 ± 0.00
plasma 17R-RvD3 concentration in mice, Mean ± SEM (1 μg/mouse): 4.26 ± 0.87
plasma 22-OH-MaR1 concentration in mice, Mean ± SEM (1 μg/mouse): 0.00 ± 0.00
plasma 22-OH-PD1 concentration in mice, Mean ± SEM (1 μg/mouse): 0.00 ± 0.00
plasma LXA4 concentration in mice, Mean ± SEM (1 μg/mouse): 1.06 ± 0.20
plasma LXB4 concentration in mice, Mean ± SEM (1 μg/mouse): 16.93 ± 1.92
plasma MaR1 concentration in mice, Mean ± SEM (1 μg/mouse): 71.74 ± 20.71
plasma MaR1n-3 DPA concentration in mice, Mean ± SEM (1 μg/mouse): 0.83 ± 0.34
plasma MaR2 concentration in mice, Mean ± SEM (1 μg/mouse): 2.05 ± 0.39
plasma PD1 concentration in mice, Mean ± SEM (1 μg/mouse): 10.13 ± 4.31
plasma PD1n-3 DPA concentration in mice, Mean ± SEM (1 μg/mouse): 0.00 ± 0.00
plasma PDx concentration in mice, Mean ± SEM (1 μg/mouse): 17.23 ± 1.32
plasma RvD1 concentration in mice, Mean ± SEM (1 μg/mouse): 1.39 ± 0.59
plasma RvD1n-3 DPA concentration in mice, Mean ± SEM (1 μg/mouse): 0.67 ± 0.35
plasma RvD2 concentration in mice, Mean ± SEM (1 μg/mouse): 2.60 ± 1.05
plasma RvD2n-3 DPA concentration in mice, Mean ± SEM (1 μg/mouse): 4.54 ± 1.98
plasma RvD3 concentration in mice, Mean ± SEM (1 μg/mouse): 1.30 ± 0.56
plasma RvD4 concentration in mice, Mean ± SEM (1 μg/mouse): 3.70 ± 0.70
plasma RvD5 concentration in mice, Mean ± SEM (1 μg/mouse): 1.64 ± 0.67
plasma RvD5n-3 DPA concentration in mice, Mean ± SEM (1 μg/mouse): 4.02 ± 0.79
plasma RvD6 concentration in mice, Mean ± SEM (1 μg/mouse): 1.72 ± 0.72
plasma RvE1 concentration in mice, Mean ± SEM (1 μg/mouse): 0.54 ± 0.25
plasma RvE2 concentration in mice, Mean ± SEM (1 μg/mouse): 1.70 ± 0.52
plasma RvE3 concentration in mice, Mean ± SEM (1 μg/mouse): 6.22 ± 1.39
plasma RvT1 concentration in mice, Mean ± SEM (1 μg/mouse): 10.18 ± 2.01
plasma RvT2 concentration in mice, Mean ± SEM (1 μg/mouse): 0.00 ± 0.00
plasma RvT3 concentration in mice, Mean ± SEM (1 μg/mouse): 0.63 ± 0.28
plasma RvT4 concentration in mice, Mean ± SEM (1 μg/mouse): 1.40 ± 0.64
plasma 4S,14S-diHDHA concentration in mice, Mean ± SEM (22 μg/mouse): 1.43 ± 0.64
plasma 5S,15S-diHETE concentration in mice, Mean ± SEM (22 μg/mouse): 12.65 ± 5.37
plasma 7S,14S-diHDHA concentration in mice, Mean ± SEM (22 μg/mouse): 22.10 ± 8.55
plasma 7S,14S-diHDPA concentration in mice, Mean ± SEM (22 μg/mouse): 0.64 ± 0.55
plasma 10S,17S-diHDPA concentration in mice, Mean ± SEM (22 μg/mouse): 0.52 ± 0.45
plasma 13,14-dehydro-15-oxo-LXA4 concentration in mice, Mean ± SEM (22 μg/mouse): 0.20 ± 0.15
plasma 14-oxo-MaR1 concentration in mice, Mean ± SEM (22 μg/mouse): 0.81 ± 0.41
plasma 15-oxo-LXA4 concentration in mice, Mean ± SEM (22 μg/mouse): 3.93 ± 1.01
plasma 15R-LXA4 concentration in mice, Mean ± SEM (22 μg/mouse): 6.20 ± 1.44
plasma 15R-LXB4 concentration in mice, Mean ± SEM (22 μg/mouse): 2.17 ± 0.89
plasma 17R-PD1 concentration in mice, Mean ± SEM (22 μg/mouse): 1.41 ± 0.61
plasma 17R-RvD1 concentration in mice, Mean ± SEM (22 μg/mouse): 0.26 ± 0.30
plasma 17R-RvD3 concentration in mice, Mean ± SEM (22 μg/mouse): 0.67 ± 0.65
plasma 22-OH-MaR1 concentration in mice, Mean ± SEM (22 μg/mouse): 0.00 ± 0.00
plasma 22-OH-PD1 concentration in mice, Mean ± SEM (22 μg/mouse): 0.00 ± 0.00
plasma LXA4 concentration in mice, Mean ± SEM (22 μg/mouse): 0.56 ± 0.15
plasma LXB4 concentration in mice, Mean ± SEM (22 μg/mouse): 12.72 ± 1.68
plasma MaR1 concentration in mice, Mean ± SEM (22 μg/mouse): 37.97 ± 11.63
plasma MaR1n-3 DPA concentration in mice, Mean ± SEM (22 μg/mouse): 0.00 ± 0.00
plasma MaR2 concentration in mice, Mean ± SEM (22 μg/mouse): 1.28 ± 0.72
plasma PD1 concentration in mice, Mean ± SEM (22 μg/mouse): 9.99 ± 2.47
plasma PD1n-3 DPA concentration in mice, Mean ± SEM (22 μg/mouse): 0.28 ± 0.24
plasma PDx concentration in mice, Mean ± SEM (22 μg/mouse): 10.36 ± 2.79
plasma RvD1 concentration in mice, Mean ± SEM (22 μg/mouse): 0.14 ± 0.12
plasma RvD1n-3 DPA concentration in mice, Mean ± SEM (22 μg/mouse): 0.33 ± 0.48
plasma RvD2 concentration in mice, Mean ± SEM (22 μg/mouse): 2.99 ± 0.66
plasma RvD2n-3 DPA concentration in mice, Mean ± SEM (22 μg/mouse): 3.72 ± 3.41
plasma RvD3 concentration in mice, Mean ± SEM (22 μg/mouse): 0.18 ± 0.66
plasma RvD4 concentration in mice, Mean ± SEM (22 μg/mouse): 3.88 ± 0.55
plasma RvD5 concentration in mice, Mean ± SEM (22 μg/mouse): 0.00 ± 0.00
plasma RvD5n-3 DPA concentration in mice, Mean ± SEM (22 μg/mouse): 0.00 ± 0.00
plasma RvD6 concentration in mice, Mean ± SEM (22 μg/mouse): 0.00 ± 0.00
plasma RvE1 concentration in mice, Mean ± SEM (22 μg/mouse): 0.00 ± 0.00
plasma RvE2 concentration in mice, Mean ± SEM (22 μg/mouse): 0.96 ± 0.22
plasma RvE3 concentration in mice, Mean ± SEM (22 μg/mouse): 0.77 ± 0.64
plasma RvT1 concentration in mice, Mean ± SEM (22 μg/mouse): 9.49 ± 5.15
plasma RvT2 concentration in mice, Mean ± SEM (22 μg/mouse): 0.00 ± 0.00
plasma RvT3 concentration in mice, Mean ± SEM (22 μg/mouse): 0.87 ± 0.48
plasma RvT4 concentration in mice, Mean ± SEM (22 μg/mouse): 2.07 ± 1.16
ALOX15-derived SPM including RvT1, RvT4 and RvD5n-3 DPA [1]: upregulation
peripheral blood SPM profile [1]: dose-dependent shift
